Results taken from patent publication US20050182220A1, “Novel functional norbornenes as initiators for radical polymerization, their polymeric derivatives and a process for producing the same” (priority 2004, published 2005).

Test: Solubility in organic solvents
Assay type: physicochemical

Compound: CC(C)(Br)C(=O)NCC1CC2C=CC1C2 (stereo not drawn) [NBTMBr]
- Solubility: completely soluble in (solvents) (at 60° C.): completely in N,N-dimethylacetamide (DMAc)
- Solubility: partially soluble in (solvents) (at 60° C.): partially in toluene, benzene, hexane and N-methyl-2-pyrrolidinone (NMP)
- Solubility: soluble in (solvents) (at room temperature): soluble in acetone, pyridine, ethanol, methanol, methylene chloride, tetrahydrofuran, N,N-dimethylformamide (DMF) and dimethylsulfoxide (DMSO)
